In patent publication USRE30633E, “3-Lower alkylcarbamylsulfonamido-4-phenylaminopyridines, n-oxides, derivatives thereof and pharmaceutical compositions containing same” (A. Christiaens Societe Anonyme, priority 1974, dated 1981):

What was measured:
paw of rats = assay: Pharmacological test for anti-inflammatory properties (carrageenan rat paw swelling); type: in vivo; conditions: oral 1 hour before carrageenan (0.05 ml of 1%), swelling 4 hours after injection by plethysmography, dose not given
Description: 1. Pharmacological test for anti-inflammatory properties.
The compounds to be tested are given as freshly prepared solutions or suspensions by oral route 1 hour before injecting the paw of rats with carrageenan which is a known inflammatory agent.
The inflammatory agent (carrageenan) either in solution or suspension is then injected into the plantar tissue of the right hind paw of each rat, the left paw remaining untreated and serving as control. Each animal receives, for example, 0.05 ml of an aqueous solution containing 1% by weight of carrageenan and 0.9% of sodium chloride.
4 hours after the injection of the inflammatory agent, the importance of swelling is determined by plethysmography and is expressed as a percent of the volume of the control paw.
The anti-inflammatory effect expressed as a percentage of inhibition is obtained by comparison between rats treated with the anti-inflammatory compound and a control group of rats.

rats = assay: Pharmacological test for diuretic properties (urine volume); type: in vivo; conditions: 50 mg/kg gastric gavage, 25 ml/kg saline s.c., urine collected 4 hours, ml/kg of body weight
Description: 2. Pharmacological tests for diuretic properties Lots of 3 rats weighting 250-300 g have been constituted at random, each of them being submitted to the same treatment. The compound to be tested was administered by .[.gastric gavage at a dose of 50 ml/kg as a solution or a.]. .Iadd.gastric gavage at a dose of 50 mg/kg as a solution or a .[…].suspension in water containing 0.45% of methylcellulose (which is an inert mucilaginous substance). Control animals received only distilled water as a placebo. At the same time, all the animals received 25 ml/kg of physiological saline by subcutaneous injection. The rats were then placed in metabolic cages, each cage containing 3 animals receiving the same treatment. The urines have been collected during 4 hours. […] The diuresis is expressed in ml/kg of body weight.

Molecule | % inhibition of acute oedema (paw of rats) | Diuresis (rats)
3-isopropylcarbamylsulfonamido-4-isopropylaminopyridine [JDL 363] | 63.2% | 40.1 mL/kg
CCCNC(=O)NS(=O)(=O)c1cnccc1Oc1cccc(Cl)c1 [JDL 365, 3-propylcarbamylsulfonamido-4-(3'-chloro)-phenoxypyridine] | 43.2% | 8.7 mL/kg
CCCNC(=O)NS(=O)(=O)c1cnccc1Nc1ccccc1Cl [JDL 404, 3-propylcarbamylsulfonamido-4-(2'-chloro)-phenylaminopyridine] | 76.8% | 43.1 mL/kg
CCN(CC)c1ccncc1S(=O)(=O)NC(=O)NC(C)C [JDL 483, 3-isopropylcarbamylsulfonamido-4-diethylaminopyridine] | 0% | 12.4 mL/kg
CCNC(=S)NS(=O)(=O)c1cnccc1Nc1cccc(Cl)c1 [JDL 478, 3-ethylthiocarbamylsulfonamido-4-(3'-chloro)-phenylaminopyridine] | 29.6% | 29.7 mL/kg
CCNC(=O)NS(=O)(=O)c1cnccc1NCc1ccco1 [JDL 471, 3-ethylcarbamylsulfonamido-4-methylfurylaminopyridine] | 70.4% | 37.7 mL/kg
CCNC(=O)NS(=O)(=O)c1cnccc1Nc1cccc(C)c1 [JDL 463, 3-ethylcarbamylsulfonamido-4-(3'-methyl)-phenylaminopyridine] | 73.6% | 76.1 mL/kg
CCNC(=O)NS(=O)(=O)c1cnccc1Nc1cccc(Cl)c1 [JDL 387] | 76.8% | 80.9 mL/kg
CC(C)(C)NC(=O)NS(=O)(=O)c1cnccc1Sc1cccc(Cl)c1 [JDL 385, 3-tertiobutylcarbamylsulfonamido-4-(3'-chloro)-thiophenoxypyridine] | 46.6% | 17.6 mL/kg
CCCCNC(=O)NS(=O)(=O)c1cnccc1Nc1cccc(Cl)c1 [JDL 344, 3-butylcarbamylsulfonamido-4-(3'-chloro)-phenylaminopyridine] | 82.4% | 66.9 mL/kg
Cc1cncc(S(=O)(=O)NC(=O)NC(C)C)c1Nc1cccc(Cl)c1 [JDL 503, 3-isopropylcarbamylsulfonamido-4-(3'-chloro)-phenylamino-5-methylpyridine] | 71.2% | 48.9 mL/kg
CC(C)NC(=O)NS(=O)(=O)c1cnccc1Nc1cccc([N+](=O)[O-])c1 [JDL 505, 3-isopropylcarbamylsulfonamido-4-(3'-nitro)-phenylaminopyridine] | 68.0% | 56.3 mL/kg
CCNC(=O)NS(=O)(=O)c1cnccc1Nc1ccccc1Cl [JDL 403, 3-ethylcarbamylsulfonamido-4-(2'-chloro)-phenylaminopyridine] | 76.8% | 74.9 mL/kg
CCCNC(=O)NS(=O)(=O)c1cnccc1Nc1cccc(Cl)c1 [JDL 375, 3-propylcarbamylsulfonamido-4-(3'-chloro)-phenylaminopyridine] | 46.4% | 80.5 mL/kg
NS(=O)(=O)c1cnccc1Oc1cccc(Cl)c1 [JDL 360, 3-sulfonamido-4-(3'-chloro)-phenoxypyridine] | 33.6% | 5.2 mL/kg
CCNC(=O)NS(=O)(=O)c1cnccc1Nc1cccc(C(F)(F)F)c1 [JDL 386, 3-ethylcarbamylsulfonamido-4-(3'-trifluoromethyl)-phenylaminopyridline] | 80.8% | 80.5 mL/kg
CNC(=O)NS(=O)(=O)c1cnccc1Nc1ccccc1Cl [JDL 402, 3-methylcarbamylsulfonamidio-4-(2'-chloro)-phenylaminopyridine] | 76.8% | 65.4 mL/kg
CNC(=S)NS(=O)(=O)c1cnccc1Nc1cccc(Cl)c1 [JDL 477, 3-methylthiocarbamylsulfonamido-4-(3'-chloro)-phenylaminopyridine] | 61.6% | 43.6 mL/kg
CNC(=O)NS(=O)(=O)c1cncc(C)c1Nc1cccc(Cl)c1 [JDL 501, 3-methylcarbamylsulfonamido-4-(3'-chloro)-phenylamino-5-methylpyridine] | 39.2% | 35.9 mL/kg

Molecule | % inhibition of acute oedema (paw of rats) | Diuresis (rats)
CCCNC(=O)NS(=O)(=O)c1cnccc1N(C)c1ccccc1 [JDL 383, 3-pripylcarbamylsulfonamido-4-N-methyl-anilinopyridine] | 55.2% | 57.8 mL/kg
CCCCNC(=O)NS(=O)(=O)c1cnccc1Sc1cccc(Cl)c1 [JDL 366, 3-butylcarbamylsulfonamido-4-(3'-chloro)-thiophenoxypyridine] | 56.0% | 11.1 mL/kg
O=C(Nc1ccccc1)NS(=O)(=O)c1cnccc1Nc1cccc(C(F)(F)F)c1 [JDL 368, 3-phenylcarbamylsulfonamido-4-(3'-trifluoromethyl)phenylaminopyridine] | 57.0% | 6.1 mL/kg
CC(C)NC(=O)NS(=O)(=O)c1cnccc1Nc1cccc(C(F)(F)F)c1 [JDL 414, 3-isopropylcarbamylsulfonamido-4-(3'-trifluoromethyl)-phenylaminopyridine] | 75.2% | 82.9 mL/kg
CNC(=O)NS(=O)(=O)c1cnccc1Nc1cccc(F)c1 [JDL 495, 3-methylcarbamylsulfonamido-4-(3'-fluoro)-phenylaminopyridine] | 66.2% | 76.3 mL/kg
CCCCNC(=O)NS(=O)(=O)c1cnccc1Nc1cccc(C(F)(F)F)c1 [JDL 356, 3-butylcarbamylsulfonamido-4-(3'-trifluoromethyl)-phenylaminopyridine] | 80.8% | 54.7 mL/kg
CC(C)(C)NC(=O)NS(=O)(=O)c1cnccc1Nc1cccc(C(F)(F)F)c1 [JDL 367, 3-tertbutylcarbamylsulfonamido-4-(3'-trifluoromethyl)-phenylaminopyridine] | 80.0% | 11.1 mL/kg
NS(=O)(=O)c1cnccc1Sc1cccc(Cl)c1 [JDL 361, 3-sulfonamido-4-(3'-chloro)-thiophenoxypyridine] | 56.8% | 9.6 mL/kg
CNC(=O)NS(=O)(=O)c1cnccc1Nc1cccc(C)c1 [JDL 494, 3-methylcarbamylsulfonamido-4-(3'-methyl)-phenylaminopyridine] | 85.6% | 75.9 mL/kg
CNC(=O)NS(=O)(=O)c1cnccc1Nc1cccc(C(F)(F)F)c1 [JDL 378, 3-methylcarbamylsulfonamido-4-(3'-trifluoromethyl)-phenylaminopyridine] | 74.4% | 84.0 mL/kg
CCNC(=O)NS(=O)(=O)c1cnccc1Nc1cccc(Br)c1 [JDL 467, 3-ethylcarbamylsulfonamido-4-(3'-bromo)-phenylaminopyridine] | 69.6% | 65.8 mL/kg
CC(C)NC(=O)NS(=O)(=O)c1cnccc1NC(C)C [JDL 482, 3-isopropylcarbamylsulfonamido-4-isopropylaminopyridine] | 0% | 25.3 mL/kg
CC(C)(C)NC(=O)NS(=O)(=O)c1cnccc1Nc1ccccc1Cl [JDL 427, 3-tertiobutylcarbamylsulfonamido-4-(2'-chloro)-phenylaminopyridine] | 53.6% | 11.4 mL/kg
O=C(Nc1ccc(Cl)cc1)NS(=O)(=O)c1cnccc1Nc1cccc(Cl)c1 [JDL 391, 3-parachlorophenylcarbamylsulfonamido-4-(3'-chloro)-phenylaminopyridine] | 74.4% | 9.6 mL/kg
CCc1cccc(Nc2ccncc2S(=O)(=O)NC(=O)NC(C)C)c1 [JDL 512, 3-isopropylcarbamylsulfonamido-4-(3'-ethyl)-phenylaminopyridine] | 78.7% | 65.9 mL/kg
CCC(=O)NS(=O)(=O)c1cnccc1N(C)c1ccccc1 [JDL 358, 3-propionylsulfonamido-4-(N-methylanilino)-pyridine] | 57.3% | 17.9 mL/kg
CC(C)(C)NC(=O)NS(=O)(=O)c1cnccc1Nc1ccc(Cl)cc1 [JDL 425, 3-tertiobutylcarbamylsulfonamido-4-(4'-chloro)-phenylaminopyridine] | 42.4% | 37.7 mL/kg
CNC(=O)NS(=O)(=O)c1cnccc1Nc1cccnc1 [JDL 506, 3-methylcarbamylsulfonamido-4-(3'-pyridylamino)-pyridine] | – | 13.5 mL/kg
CC(C)NC(=O)NS(=O)(=O)c1cnccc1Nc1cc(Cl)cc(Cl)c1 [JDL 474, 3-isopropylcarbamylsulfonamido-4-(3',5'-dichloro)-phenylaminopyridine] | – | 33.3 mL/kg
